Source: US7632957B2, “Esterification reaction products and cosmetic products” (The Nisshin Oillio Group, Ltd., priority 2005, dated 2009)

How the values were obtained:
Type in all cases: physicochemical
[1] = Water-retaining property test (mass loss after 24 hours at 40° C.); details: reduced mass after 24 hours at 40° C., lid off; lower is better
Procedure: (3) Water-Retaining Property Test
A measurement sample (1 g) and Vaseline (9 g) are mixed and vigorously stirred (500 rpm, 3 minutes) in a thermostat chamber at 40° C. while dropwise adding 10 g of purified water thereto (the ratio of purified water to the mixture of sample and Vaseline was 1:1). When the sample become smooth, 10 g of the sample is uniformly applied onto a Petri dish so as to have a thickness of 0.5 to 1.5 mm and then put in a thermostat chamber at 40° C. with the lid off. After 24 hours, the sample is taken out from the chamber. The mass after the still standing is measured, and the reduced mass after the standing is calculated and is expressed as a percentage to the mass of the applied sample. A lower value means better water-retaining properties of the sample.

[2] = Water resistant ability (waterproof-film-forming ability), contact angle before and after washing; details: film on glass plate, before and after washing with flowing tap water 25 mL/s, 1 minute; smaller is better
Procedure: (6) Water Resistant Ability (Waterproof-Film-Forming Ability)
A sample is dissolved in chloroform to prepare a sample solution containing 10% by mass of the sample. The prepared sample solution is applied onto a washed glass plate. Then, the solvent is removed to form a film, and one drop of distilled water is dropped onto the formed film. The contact angle between the film surface and the water droplet is measured. After the measurement, the film is washed with flowing tap water (25 mL/s, 1 minute). The water resistant ability is evaluated by comparing the contact angles before and after the washing. A smaller difference in the contact angle before and after the washing means better water resistant ability.

[3] = Water-holding property test 1 (water taken up by sample/Vaseline mixture at 40° C.); details: sample 1 g + Vaseline 9 g, mass of water to mass of mixture, higher is better
Procedure: (1) Water-Holding Property Test 1
The water-holding property test of esterification reaction products is conducted with reference to the lanolin water retention value test in British Pharmacopoeia (BP) as follows:
A measurement sample (1 g) and Vaseline (9 g) are mixed and vigorously stirred (200 to 300 rpm) in a thermostat chamber at 40° C. while dropwise adding purified water thereto. The point when water is no longer being received is determined as the end-point and is expressed as a percentage of mass of water to mass of the mixture. A higher value means better water-holding properties of the sample.

[4] = Dispersibility test (titanium oxide, octyl palmitate; wetting point and fluid point); details: sample 4 g + titanium oxide 20 g, octyl palmitate added; for (4) Dispersibility Wetting point: lower is better
Procedure: A sample (4 g) and titanium oxide (20 g) are mixed, and then octyl palmitate (manufactured by The Nisshin OilliO Group, Ltd. under the trade name Salacos P-8) is gradually added thereto. The point when the mixture become uniform as a whole is determined as the wetting point, and the point when the mixture starts to flow by tilting the whole mixture is determined as the fluid point. The amounts of octyl palmitate added until to reach the respective points are measured and used as the wetting point value and the fluid point value.
A lower wetting point value or a smaller difference between the wetting point value and the fluid point value means higher pigment-dispersing properties of the sample.

[5] = Water-holding property test 2 (differential scanning calorimetry of sample:water 7:3); details: sample:water 7:3, DSC 2° C./min from −15° C. to 45° C.; no peak = good water-holding
Procedure: (2) Water-Holding Property Test 2
A measurement sample and water are mixed at a mass ratio of 7:3 and are vigorously stirred (500 rpm, 3 minutes) in a thermostatic chamber at 70° C. to obtain a water-holding substance. The obtained water-holding substance is analyzed with a differential scanning calorimeter (device name “DSC 6200”, manufactured by Seiko Instruments Inc.). That is, the temperature of the water-holding substance is raised at a rate of 2° C./min in the range from −15° C. to 45° C. to obtain a differential scanning calorimetry curve, and the curve is confirmed whether an endothermic peak due to water at around 0° C. is present or not. When this endothermic peak is not observed, the water-holding properties are judged to be good.

[6] = Solubility of 4-tert-butyl-4′-methoxydibenzoylmethane when mixed with esterification reaction product; details: mixed with esterification reaction product (Production Example 1)

(3) Water-retaining properties [1] [% by mass]	Water resistant ability (difference in contact angle (°)) [2] [°]	(1) Water-holding properties [3] [% by mass]	(4) Dispersibility Fluid point [4] [% by mass]	(4) Dispersibility Wetting point [4] [% by mass]	endothermic peak due to water at around 0° C. [5]	solubility of 4-tert-butyl-4′-methoxydibenzoylmethane [6]	Compound
3.0	47.4	200	22	3	detected		CC(C)CCCCCCCCCCCCCCCOC(=O)CC(O)C(=O)OCCCCCCCCCCCCCCCC(C)C (stereo not shown) [Diisostearyl malate, diisostearyl malate]
1.9		320	9	2	detected		CCCCCCC(O)CCCCCCCCCCC(=O)O[C@H]1CC[C@@]2(C)C(=CC[C@H]3[C@@H]4CC[C@H]([C@H](C)CCCC(C)C)[C@@]4(C)CC[C@@H]32)C1 (stereo partly shown) [Cholesteryl hydroxystearate, cholesteryl hydroxystearate]
						improved	COc1ccc(C(=O)CC(=O)c2ccc(C(C)(C)C)cc2)cc1 [4-tert-butyl-4′-methoxydibenzoylmethane]
	21.0						polyglyceryl triisostearate
